In patent publication US12662505B2, “Steviol glycoside solubility enhancers” (CARGILL, INCORPORATED, priority 2019, dated 2026):

Legend:
[1] = format: physicochemical
Method: Clear solutions without precipitates are considered soluble. Unless indicated otherwise herein, the term “solubility” refers to “equilibrium solubility.”
Upon heating to 80° C. for 15 minutes, rebaudioside D has an equilibrium solubility of 0.08% for at least four days at room temperature.

[2] = sensory evaluation; cited from earlier work

Row | Compound | equilibrium solubility [1] | instantaneous solubility [1] | sweetness relative to sucrose [2]
1 | C=C1C[C@@]23CC[C@H]4[C@@](C)(CCC[C@@]4(C)C(=O)O[C@@H]4O[C@H](CO)[C@@H](O)[C@H](O)[C@H]4O[C@@H]4O[C@H](CO)[C@@H](O)[C@H](O)[C@H]4O)[C@@H]2CC[C@]1(O[C@@H]1O[C@H](CO)[C@@H](O)[C@H](O[C@@H]2O[C@H](CO)[C@@H](O)[C@H](O)[C@H]2O)[C@H]1O[C@@H]1O[C@H](CO)[C@@H](O)[C@H](O)[C@H]1O)C3 [Rebaudioside D] | 0.08% | less than 0.08% | 200-220 times sweeter than sucrose
2 | C=C1C[C@@]23CC[C@H]4[C@@](C)(CCC[C@@]4(C)C(=O)O[C@@H]4O[C@H](CO)[C@@H](O)[C@H](O[C@@H]5O[C@H](CO)[C@@H](O)[C@H](O)[C@H]5O)[C@H]4O[C@@H]4O[C@H](CO)[C@@H](O)[C@H](O)[C@H]4O)[C@@H]2CC[C@]1(O[C@@H]1O[C@H](CO)[C@@H](O)[C@H](O[C@@H]2O[C@H](CO)[C@@H](O)[C@H](O)[C@H]2O)[C@H]1O[C@@H]1O[C@H](CO)[C@@H](O)[C@H](O)[C@H]1O)C3 [Rebaudioside M] | about 0.2% | about 0.13% | –
